Source: paper PMC4266452, “Prediction of Thorough QT study results using action potential simulations based on ion channel screens” (Journal of Pharmacological and Toxicological Methods, 2014)
Where “and” joins values, the source holds several entries; their conditions need not be identical. Equal values may be shown once. Read-outs that look alike come from different tables or passages of the source.

Columns and labels:
[1] = biological target: hERG (Homo sapiens, UniProt Q12809); experiment: IonWorks Quattro hERG screen (AstraZeneca, Q)
[2] = biological target: T1, KCNQ1/MinK (Homo sapiens, UniProt P51787); experiment: IonWorks Quattro KCNQ1/MinK screen (AstraZeneca, Q); details: −log10 of IC50 in Molar, Hill n = 1, 0.0 = pIC50 ≤ 0 fitted
[3] = biological target: T2, CaV1.2 (Homo sapiens, UniProt Q13936); experiment: IonWorks Quattro CaV1.2 screen (AstraZeneca, Q)
[4] = ref Gintant (2011); cited from earlier work
[5] = biological target: T3, NaV1.5 (Homo sapiens, UniProt Q14524); experiment: IonWorks Quattro NaV1.5 screen (AstraZeneca, Q)
[6] = Plasma concentration (Cmax) during the TQT study, total and calculated free; type: in vivo, human
[7] = ref Gintant (2011), cited from earlier work
[8] = biological target: T1, KCNQ1/MinK
[9] = biological target: T4, Kv4.3/KChIP2.2 (Homo sapiens, UniProt Q9UK17); experiment: IonWorks Quattro Kv4.3/KChIP2.2 screen (AstraZeneca, Q); type: cell-based
T4 sequence (Q9UK17 1-655): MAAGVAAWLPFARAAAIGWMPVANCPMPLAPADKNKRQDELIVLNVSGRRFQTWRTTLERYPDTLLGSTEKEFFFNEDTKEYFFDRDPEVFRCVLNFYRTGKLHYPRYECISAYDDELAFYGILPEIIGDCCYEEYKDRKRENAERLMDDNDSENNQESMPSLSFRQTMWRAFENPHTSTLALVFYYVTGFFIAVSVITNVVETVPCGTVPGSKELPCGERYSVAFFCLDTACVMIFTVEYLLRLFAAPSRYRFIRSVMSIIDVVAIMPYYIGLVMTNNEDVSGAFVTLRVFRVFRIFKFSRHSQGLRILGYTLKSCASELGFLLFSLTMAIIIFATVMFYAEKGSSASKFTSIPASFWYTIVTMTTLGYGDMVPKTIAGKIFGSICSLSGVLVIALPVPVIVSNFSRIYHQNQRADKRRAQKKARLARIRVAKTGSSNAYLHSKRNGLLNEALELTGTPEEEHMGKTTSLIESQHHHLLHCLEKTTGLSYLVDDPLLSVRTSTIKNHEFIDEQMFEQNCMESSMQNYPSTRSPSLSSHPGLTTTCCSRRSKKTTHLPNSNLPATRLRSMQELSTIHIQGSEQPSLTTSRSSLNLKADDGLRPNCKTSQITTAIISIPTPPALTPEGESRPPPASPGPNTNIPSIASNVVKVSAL
T4 sequence (Q9NS61 1-270 partner): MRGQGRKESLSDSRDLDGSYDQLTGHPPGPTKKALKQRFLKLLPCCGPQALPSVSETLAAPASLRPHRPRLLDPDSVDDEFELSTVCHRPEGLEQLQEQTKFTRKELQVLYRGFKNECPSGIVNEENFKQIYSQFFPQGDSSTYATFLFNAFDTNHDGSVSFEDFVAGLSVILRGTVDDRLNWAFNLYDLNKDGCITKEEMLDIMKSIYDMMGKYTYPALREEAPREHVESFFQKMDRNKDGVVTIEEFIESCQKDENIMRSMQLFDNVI

[10] = biological target: T2, CaV1.2; experiment: IonWorks Barracuda CaV1.2 screen (GSK, B)
[11] = biological target: T3, NaV1.5; experiment: Second IonWorks Quattro NaV1.5 screen (GSK, Q2)
[12] = IonWorks Quattro, −log10 of IC50 in Molar, Hill n = 1, 0.0 = pIC50 ≤ 0 fitted
[13] = Cmax high, calculated from ng/mL and molecular weight
[14] = Cmax high, calculated with PPB and molecular weight
[15] = Cmax low, calculated with PPB and molecular weight

Structure (SMILES) | KCNQ1 pIC50 (Q) [2] | PPB (percent plasma binding) [4] | NaV1.5 pIC50 (Q) [5, 12] | KCNQ1 pIC50 (Q) [8] | CaV1.2 pIC50 (Q) [3] | CaV1.2 pIC50 (B) [10] | Cmax TOTAL [6, 13] | Cmax FREE ([6]; Cmax high, calculated with PPB) | Cmax FREE [6, 14] | Cmax TOTAL ([7]; Cmax high) | Free plasma concentration ([6]; Cmax high) | Free plasma concentration ([6]; Cmax low) | Cmax FREE ([6]; Cmax low, calculated with PPB) | Cmax FREE [6, 15] | Cmax TOTAL ([7]; Cmax low) | also measured
C[C@H]1CN(C[C@H](Cc2ccccc2)C(=O)NCC(=O)O)CC[C@@]1(C)c1cccc(O)c1 [Alvimopan] | 4.3 | 70% | 3.6 |  |  |  |  |  |  |  |  |  |  |  |  | IC50 [1]: 63.1 mM; CaV1.2 pIC50 (Q) [3, 12]: 5.3; Cmax FREE ([6]; 12mg Capsule): 2.97 ng/mL and 6.996 nM; Cmax TOTAL ([6]; 12mg Capsule): 23.3199 nM; Free plasma concentration ([6]; 12mg Capsule): 6.996 nM; Cmax FREE ([6]; 24 extrapolate): 5.94 ng/mL and 13.9919 nM; Cmax TOTAL ([6]; 24 extrapolate): 19.8 ng/mL and 46.6398 nM; Free plasma concentration ([6]; 24 extrapolate): 13.99 nM; Cmax TOTAL ([7]; 12mg Capsule): 9.9 ng/mL
CNCC[C@H](Oc1cccc2ccccc12)c1cccs1 [Duloxetine] |  | 90% |  | 5.0 | 4.0 | 4.6 | 1008.69 nM | 30 ng/mL | 100.869 nM | 300 ng/mL |  |  |  |  |  | Kv4.3 pIC50 (Q) [9]: 4.0; NaV1.5 pIC50 (Q) [5]: 5.1; NaV1.5 pIC50 (Q2) [11]: 4.8
COC[C@@H](NC(C)=O)C(=O)NCc1ccccc1 [Lacosamide] |  | 6% PPB |  | 3.6 |  |  |  | 19928 ng/mL | 79618.4 nM |  | 79618.4 nM | 41311.4 nM | 10340 ng/mL | 41311.4 nM |  | CaV1.2 pIC50 (Q) ([3]; IonWorks Quattro, −log10 of IC50 in Molar, Hill n = 1, […]): 4.3
Nc1nnc(-c2cccc(Cl)c2Cl)c(N)n1 [Lamotrigine] |  | 55% PPB | 4.0 |  | 2.8 | 2.9 | 37525.9 nM | 4324.5 ng/mL | 37525.9 nM | 9610 ng/mL | 37525.9 nM | 28193.2 nM | 3249 ng/mL |  | 7220 ng/mL | NaV1.5 pIC50 (Q2) ([11]; second independent Quattro screening, −log10 of IC50 in Molar, 0.0 = pIC50 ≤ 0 fitted): 4.4
CS(=O)(=O)CCNCc1ccc(-c2ccc3ncnc(Nc4ccc(OCc5cccc(F)c5)c(Cl)c4)c3c2)o1 [Lapatinib] | 3.6 |  | 2.5 |  | 2.7 | 1.8 | 5512.340 nM | 32.030 ng/mL | 55.123 nM | 3203.000 ng/mL | 55.12 nM | 23.9 nM | 13.890 ng/mL | 23.905 nM | 1389.000 ng/mL | Cmax TOTAL ([6]; Cmax low, calculated from ng/mL and molecular weight): 2390.459 nM
